Legend:
[1] = test system: human osteosarcoma cell line SJSA-1; assay: Inhibition of proliferation of human osteosarcoma cell line SJSA-1 (DAPI staining, In Cell Analyzer); settings: for inhibitory effect on human osteosarcoma cell line SJSA-1 compared with positive control compound HDM201: labels are Example numbers, the compounds with S-configuration are meant; for IC50: Homo sapiens, SJSA-1, 72 h, read-out: IC50 (nM), inhibitory activity on proliferation of human osteosarcoma cell line SJSA-1, SJSA-1, incubated 72 h
[2] = biological target: T1, MDM2 (Homo sapiens, UniProt Q00987); assay: Inhibition test of MDM2-P53 (GST-MDM2, Biotin-P53, Anti-GST-Tb, SA-XL665); format: binding; settings: for inhibitory effect on MDM2 compared with positive control compound HDM201: labels are Example numbers, the compounds with S-configuration are meant
T1 construct: made in house
T1 sequence (Q00987 whole entry): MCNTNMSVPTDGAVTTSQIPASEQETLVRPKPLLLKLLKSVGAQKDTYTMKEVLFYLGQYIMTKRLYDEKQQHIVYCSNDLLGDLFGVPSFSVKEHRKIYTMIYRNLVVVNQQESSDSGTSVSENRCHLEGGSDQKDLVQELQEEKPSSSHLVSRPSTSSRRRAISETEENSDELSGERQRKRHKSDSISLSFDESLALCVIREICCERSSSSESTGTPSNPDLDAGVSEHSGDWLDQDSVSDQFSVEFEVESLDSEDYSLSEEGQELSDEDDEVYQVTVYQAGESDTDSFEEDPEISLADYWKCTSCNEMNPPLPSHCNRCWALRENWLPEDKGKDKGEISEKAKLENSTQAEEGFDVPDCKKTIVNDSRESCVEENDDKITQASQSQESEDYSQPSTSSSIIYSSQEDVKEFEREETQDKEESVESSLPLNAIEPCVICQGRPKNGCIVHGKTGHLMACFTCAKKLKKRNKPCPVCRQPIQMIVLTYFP
Method in brief: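 HTRF-type assay using 4 nM GST-MDM2 (final), Biotin-P53, SA-XL665 and anti-GST-Tb in PBS with 0.1% BSA, 5 mM DTT and 1 mM AEBSF. Compounds in 5-fold serial dilutions over twelve points; incubation 90 min at 25° C with shaking before plate-reader read-out.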

Row | Structure (SMILES) | inhibitory effect on human osteosarcoma cell line SJSA-1 compared with positive control compound HDM201 [1] | inhibitory effect on MDM2 compared with positive control compound HDM201 [2] | IC50 [1] [nM] | IC50 [2] [nM]
1 | CCOc1cc(OC)c(-c2nc3c(n2C(C)C)C2(C(=O)Nc4cc(Cl)ccc42)N(c2cccc(Cl)c2)C3=O)cn1 (stereo not shown) [Example 102, 6-chloro-5′-(3-chlorophenyl)-2′-(6-ethoxy-4-methoxypyridin-3-yl)-3′-isopropyl-3′H-spiro[dihydroindole-3,4′-pyrrolo[3,4-d]imidazole]-2,6′(5′H)-dione] | better | better | – | –
2 | COc1cc(C2CC2)ncc1-c1nc2c(n1C(C)C)C1(C(=O)Nc3cc(Cl)ccc31)N(c1cc(Cl)ccc1C)C2=O (stereo not shown) [Example 103, 6-chloro-5′-(5-chloro-2-methylphenyl)-2′-(6-cyclopropyl-4-methoxypyridin-3-yl)-3′-isopropyl-3′H-spiro[dihydroindole-3,4′-pyrrolo[3,4-d]imidazole]-2,6′(5′H)-dione] | better | better | – | –
3 | COc1cc(OC2CC2)ncc1-c1nc2c(n1C(C)C)C1(C(=O)Nc3cc(Cl)ccc31)N(c1cc(Cl)ccc1C)C2=O (stereo not shown) [Example 110, 6-chloro-5′-(5-chloro-2-methylphenyl)-2′-(6-cyclopropoxy-4-methoxypyridin-3-yl)-3′-isopropyl-3′H-spiro[dihydroindole-3,4′-pyrrolo[3,4-d]imidazole]-2,6′(5′H)-dione] | better | better | – | –
4 | COc1cc(N(C)C)ncc1-c1nc2c(n1C(C)C)C1(C(=O)Nc3cc(Cl)ccc31)N(c1cccc(Cl)c1)C2=O (stereo not shown) [Example 113, 6-chloro-5′-(3-chlorophenyl)-2′-(6-(dimethylamino)-4-methoxypyridin-3-yl)-3′-isopropyl-3′H-spiro[dihydroindole-3,4′-pyrrolo[3,4-d]imidazole]-2,6′(5′H)-dione] | better | better | – | –
5 | COc1cc(OC)c(-c2nc3c(n2C(C)C)C2(C(=O)Nc4cc(Cl)ccc42)N(c2cccc(Cl)c2)C3=O)cn1 (stereo not shown) [Example 115, 6-chloro-5′-(3-chlorophenyl)-2′-(4,6-dimethoxypyridin-3-yl)-3′-isopropyl-3′H-spiro[dihydroindole-3,4′-pyrrolo[3,4-d]imidazole]-2,6′(5′H)-dione] | better | better | – | –
6 | CCc1cc(-c2nc3c(n2C(C)C)C2(C(=O)Nc4cc(Cl)ccc42)N(c2cc(Cl)ccc2C)C3=O)c(OC)cc1N(C)C (stereo not shown) [Example 125, 6-chloro-5′-(5-chloro-2-methylphenyl)-2′-(4-(dimethylamino)-5-ethyl-2-methoxyphenyl)-3′-isopropyl-3′H-spiro[dihydroindole-3,4′-pyrrolo[3,4-d]imidazole]-2,6′(5′H)-dione] | – | – | 60.3 | 20.8
7 | COc1nc(OC(C)C)ncc1-c1nc2c(n1C(C)C)C1(C(=O)Nc3cc(Cl)ccc31)N(c1cc(Cl)ccc1C)C2=O (stereo not shown) [Example 126, 6-chloro-5′-(5-chloro-2-methylphenyl)-2′-(2-isopropoxy-4-methoxypyrimidin-5-yl)-3′-isopropyl-3′H-spiro[dihydroindole-3,4′-pyrrolo[3,4-d]imidazole]-2,6′(5′H)-dione] | better | better | – | –
8 | COc1cc(OC)c(-c2nc3c(n2C(C)C)C2(C(=O)Nc4cc(Cl)ccc42)N(c2cc(Cl)cnc2C)C3=O)cn1 (stereo not shown) [Example 131, 6-chloro-5′-(5-chloro-2-methylpyridin-3-yl)-2′-(4,6-dimethoxypyridin-3-yl)-3′-isopropyl-3′H-spiro[dihydroindole-3,4′-pyrrolo[3,4-d]imidazole]-2,6′(5′H)-dione] | better | better | – | –
9 | COc1cc(OC(C)C)ncc1-c1nc2c(n1C(C)C)C1(C(=O)Nc3cc(Cl)ccc31)N(c1cc(Cl)cnc1C)C2=O (stereo not shown) [Example 137, 6-chloro-5′-(5-chloro-2-methylpyridin-3-yl)-2′-(6-isopropoxy-4-methoxypyridin-3-yl)-3′-isopropyl-3′H-spiro[dihydroindole-3,4′-pyrrolo[3,4-d]imidazole]-2,6′(5′H)-dione] | better | better | – | –
10 | COc1cc(C(F)(F)F)ncc1-c1nc2c(n1C(C)C)C1(C(=O)Nc3cc(Cl)ccc31)N(c1cc(Cl)ccc1C)C2=O (stereo not shown) [Example 138, 6-chloro-5′-(5-chloro-2-methylphenyl)-3′-isopropyl-2′-(4-methoxy-6-(trifluoromethyl)pyridin-3-yl)-3′H-spiro[dihydroindole-3,4′-pyrrolo[3,4-d]imidazole]-2,6′(5′H)-dione] | better | better | – | –
11 | CCOc1cc(OC)c(-c2nc3c(n2C(C)C)C2(C(=O)Nc4cc(Cl)ccc42)N(c2cc(F)cc(Cl)c2)C3=O)cn1 (stereo not shown) [Example 139, 6-chloro-5′-(3-chloro-5-fluorophenyl)-2′-(6-ethoxy-4-methoxypyridin-3-yl)-3′-isopropyl-3′H-spiro[dihydroindole-3,4′-pyrrolo[3,4-d]imidazole]-2,6′(5′H)-dione] | better | better | – | –
12 | COc1cc(C2CC2)ncc1-c1nc2c(n1C(C)C)C1(C(=O)Nc3cc(Cl)ccc31)N(c1cc(Cl)cnc1C)C2=O (stereo not shown) [Example 143, 6-chloro-5′-(5-chloro-2-methylpyridin-3-yl)-2′-(6-cyclopropyl-4-methoxypyridin-3-yl)-3′-isopropyl-3′H-spiro[dihydroindole-3,4′-pyrrolo[3,4-d]imidazole]-2,6′(5′H)-dione] | better | better | – | –
13 | COc1cc(OCC(F)F)ncc1-c1nc2c(n1C(C)C)C1(C(=O)Nc3cc(Cl)ccc31)N(c1cc(Cl)ccc1C)C2=O (stereo not shown) [Example 153, 6-chloro-5′-(5-chloro-2-methylphenyl)-2′-(6-(2,2-difluoroethoxy)-4-methoxypyridin-3-yl)-3′-isopropyl-3′H-spiro[dihydroindole-3,4′-pyrrolo[3,4-d]imidazole]-2,6′(5′H)-dione] | better | better | – | –
14 | COc1cc(C)ncc1-c1nc2c(n1C(C)C)C1(C(=O)Nc3cc(Cl)ccc31)N(c1cc(Cl)ccc1C)C2=O (stereo not shown) [Example 154, 6-chloro-5′-(5-chloro-2-methylphenyl)-3′-isopropyl-2′-(4-methoxy-6-methylpyridin-3-yl)-3′H-spiro[dihydroindole-3,4′-pyrrolo[3,4-d]imidazole]-2,6′(5′H)-dione] | better | better | – | –
15 | COc1cc(N(C)C)ncc1-c1nc2c(n1C(C)C)C1(C(=O)Nc3cc(Cl)ccc31)N(c1cc(Cl)cnc1C)C2=O (stereo not shown) [Example 155, 6-chloro-5′-(5-chloro-2-methylpyridin-3-yl)-2′-(6-(dimethylamino)-4-methoxypyridin-3-yl)-3′-isopropyl-3′H-spiro[dihydroindole-3,4′-pyrrolo[3,4-d]imidazole]-2,6′(5′H)-dione] | better | better | – | –
16 | COc1cc(C(C)C)ncc1-c1nc2c(n1C(C)C)C1(C(=O)Nc3cc(Cl)ccc31)N(c1cc(Cl)ccc1C)C2=O (stereo not shown) [Example 164, 6-chloro-5′-(5-chloro-2-methylphenyl)-3′-isopropyl-2′-(6-isopropyl-4-methoxypyridin-3-yl)-3′H-spiro[dihydroindole-3,4′-pyrrolo[3,4-d]imidazole]-2,6′(5′H)-dione] | better | better | – | –
17 | COc1cc(C(C)C)ncc1-c1nc2c(n1C(C)C)C1(C(=O)Nc3cc(Cl)ccc31)N(c1cc(Cl)cnc1C)C2=O (stereo not shown) [Example 166, 6-chloro-5′-(5-chloro-2-methylpyridin-3-yl)-3′-isopropyl-2′-(6-isopropyl-4-methoxypyridin-3-yl)-3′H-spiro[dihydroindole-3,4′-pyrrolo[3,4-d]imidazole]-2,6′(5′H)-dione] | better | better | – | –
18 | COc1cc(C2CC2)ncc1-c1nc2c(n1C(C)C)C1(C(=O)Nc3cc(Cl)ccc31)N(c1cc(F)cc(Cl)c1)C2=O (stereo not shown) [Example 176, 6-chloro-5′-(3-chloro-5-fluorophenyl)-2′-(6-cyclopropyl-4-methoxypyridin-3-yl)-3′-isopropyl-3′H-spiro[dihydroindole-3,4′-pyrrolo[3,4-d]imidazole]-2,6′(5′H)-dione] | better | better | – | –
19 | COc1nc(C#N)ncc1-c1nc2c(n1C(C)C)C1(C(=O)Nc3cc(Cl)ccc31)N(c1cc(Cl)ccc1C)C2=O (stereo not shown) [Example 179] | – | – | 52.7 | 4.27
20 | COc1ncc(-c2nc3c(n2C(C)C)[C@]2(C(=O)Nc4cc(Cl)ccc42)N(c2cccc(Cl)c2)C3=O)c(OC)n1 [Example R-1, (R)-6-chloro-5′-(3-chlorophenyl)-2′-(2,4-dimethoxypyrimidin-5-yl)-3′-isopropyl-3′H-spiro[dihydroindole-3,4′-pyrrolo[3,4-d]imidazole]-2,6′(5′H)-dione] | – | – | 16700 | 618
